Series [1] relates to pentagastrin-stimulated acid secretion of perfused rat stomachs. Briefly: Antisecretory action in perfused rat stomachs (pentagastrin-stimulated acid secretion in vivo). The settings on record: anesthetized CD rat, female, dose 3 μmol/kg i.v., perfused stomach. An excerpt:
Testing of the Antisecretory Action in Perfused Rat Stomachs
The influence of the compounds according to the invention after intravenous administration on the pentagastrin-stimulated acid secretion of perfused rat stomachs in vivo is shown in Table A which follows.
The abdomen of anesthetized rates (CD rat, female, 200-250 g; 1.5 g/kg i.m. urethane) was opened after tracheotomy by means of a median upper abdominal incision and a PVC catheter was fixed transorally in the esophagus and another via the pylorus such that the ends of the tubes just projected into the gastric lumen. The catheter leading from the pylorus led outwards into the right abdominal wall through a side opening.
After thorough rinsing (about 50-100 ml), warm physiological NcCl solution (37° C.) was continuously passed through the stomach (0.5 ml/min, pH 6.8-6.9, Braun-Unita I). The pH (pH meter 632, glass electrode EA 147; φ=5 mm, Metrohm) and, by titration with a freshly prepared 0.01 N NaOH solution to pH 7 (dosimat 665 Metrohm), the secreted HCl were determined in the effluent, in each case collected at an interval of 15 minutes.
The gastric secretion was stimulated by continuous infusion of […] (=1.65 ml/h) of i.v. pentagastrin (left femoral vein) about 30 min after the end of the operation (i.e. after determination of 2 preliminary fractions). […]

The structures appear in SMILES notation.

A word on the melting point: it is the temperature, or range, at which the solid turns liquid.

In turn, `Cc1nc2c3c(ccn2c1C)[C@@H](OCC(F)(F)F)[C@H](O)[C@@H](c1ccccc1)N3` [Example 1, (7R, 8R, 9R)-2,3-Dimethyl-8-hydroxy-7-(2,2,2-trifluoroethoxy)-9-phenyl-7,8,9,10-tetra-hydroimidazo[1,2-h][1,7]naphthyridine] showed a melting point of 178 to 180 °C. Moreover, in series [1], the “Inhibition of acid secretion” value is recorded as 100%.

(Values after patent publication US6503923B1, “Haloalkoxy imidazonaphthyridines” (ALTANA Pharma AG, priority 1999, dated 2003).)
